For five molecules, MIC results are on record in ChEMBL document CHEMBL1158946, “Sesquiterpenoids from Brachylaena hutchinsii” (1991).

The test system of one test is Streptococcus mutans. Briefly: Antimicrobial activity against Streptococcus mutans ATCC 25175 after 48 hrs by twofold serial broth dilution method. The settings on record: ATCC 25175, 48 h. The format is functional. (In general: Broth dilution looks for growth in wells or tubes with falling amounts of substance.)
The subject of test [1] is Corynebacterium ammoniagenes. Briefly: Antimicrobial activity against Brevibacterium ammoniagenes ATCC 6872 after 48 hrs by twofold serial broth dilution method. Type of test: functional. The following applies: ATCC 6872, 48 h.

Values after ≈ are worked out from the molar mass of the structure shown. A value given as a limit tells only on which side of the number the result lay.

For orientation: MIC means the smallest concentration in the dilution series that meets the test's criterion for growth inhibition. Turning to `CC(C)[C@H]1C(=O)CC2(C)C3C(C=O)=CC[C@@H]2[C@H]31`, the MIC (with Streptococcus mutans; in test [1]) was 800 µg/mL (≈ 3.44 mM) throughout.

Regarding `CC(C)[C@H]1C(=O)C[C@@]2(C)[C@@H]3C(CO)=CC[C@H]2[C@H]13`, the minimum inhibitory concentration (MIC) (in the test on Streptococcus mutans; in test [1]) was above 800 µg/mL in each case.

For the molecule `CC(C)[C@@H]1C(=O)CC2(C)C3C(CO)=CC[C@@H]2[C@H]31`, the MIC (against Streptococcus mutans; in test [1]) was above 800 µg/mL each time.

Take `CC(C)[C@@H]1C(=O)CC2(C)C3C(C=O)=CC[C@@H]2[C@H]31`: the minimum inhibitory concentration (MIC) (against Streptococcus mutans; in test [1]) was 800 µg/mL (≈ 3.44 mM) each time.

As to `CC(C)[C@@H]1CCC2(C)C3C(CO)=CC[C@@H]2[C@H]31` [YLANGENOL], the MIC (against Streptococcus mutans; in test [1]) was 25 µg/mL (≈ 0.113 mM) in each case.
